Source: paper PMC7217877, “N-AS-triggered SPMs are direct regulators of microglia in a model of Alzheimer’s disease” (Nature Communications, 2020)
Several values for one entry are separate records, joined by “and”; a condition that tells them apart may be missing. Identical values can stand only once.

Columns and labels:
[1] = target: T1, COX2 WT (Homo sapiens, UniProt P35354); assay: filter binding assay of [14C] N-AS to COX2; settings: COX2 Control, replicates
T1 construct: His (N); made in house
T1 sequence (P35354 18-604): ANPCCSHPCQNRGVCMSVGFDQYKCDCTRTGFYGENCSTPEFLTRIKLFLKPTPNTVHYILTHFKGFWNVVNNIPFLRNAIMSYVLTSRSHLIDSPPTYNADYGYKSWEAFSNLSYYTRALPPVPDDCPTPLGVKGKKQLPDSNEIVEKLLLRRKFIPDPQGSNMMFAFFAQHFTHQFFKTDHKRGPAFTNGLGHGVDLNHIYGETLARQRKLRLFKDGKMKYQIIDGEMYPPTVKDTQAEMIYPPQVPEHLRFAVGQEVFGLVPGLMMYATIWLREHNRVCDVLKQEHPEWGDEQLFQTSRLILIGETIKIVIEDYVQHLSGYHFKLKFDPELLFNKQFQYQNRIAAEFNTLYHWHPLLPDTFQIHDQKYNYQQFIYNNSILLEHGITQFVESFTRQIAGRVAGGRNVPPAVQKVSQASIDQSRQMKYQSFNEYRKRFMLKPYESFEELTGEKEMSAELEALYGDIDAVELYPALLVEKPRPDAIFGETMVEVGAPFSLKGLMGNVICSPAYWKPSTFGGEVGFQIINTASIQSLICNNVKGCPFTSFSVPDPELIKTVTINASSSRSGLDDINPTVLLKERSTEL
Source text: Single point mutations in SphK1 (R56A, R57A, R24A, R185A, D178A, and F192A) and COX2 (S565A, N181A, T564A, and S567A) were generated using the In-Fusion Cloning Kits (Clontech) and ORF cDNA expression plasmids of human SphK1 and COX2 gene (Sino Biological Inc, HG15679-NH and HG12036-NH), according to the manufacturer’s instructions. The forward and reverse primers described in Supplementary Table 4. The SphK1 WT, SphK1 mutants, COX2 WT, and COX2 mutant plasmids were transformed in the One shot TOP 10 competent cell (Invitrogen). The bacteria were grown in Luria-Bertani (LB, Invitrogen) plates supplemented with 50 μg ml^−1 kanamycin (Sigma-Aldrich) at 37 °C. The bacterial cell pellets were resuspended in lysis buffer containing 20 mM sodium phosphate (GE Healthcare), 500 mM NaCl (GE Healthcare), 20 mM imidazole (pH 7.4) (GE Healthcare), 0.2 mg ml^−1 lysozyme (Sigma-Aldrich), 20 μg ml^−1 DNase I (Roche), 1 mM MgCl2 (Sigma-Aldrich), and 1 mM PMSF (Sigma-Aldrich) before being lysed by sonication and clarified by centrifugation at 15,493×g for 10 min. Proteins were purified from the soluble fraction using His-Spin Trap columns (GE Healthcare) and the binding and acetylation assays were performed.
Briefly, SphK1 WT and mutant enzymes (1 mU) were resuspended in 100 μl reaction buffer (20 mM HEPES; pH 7.4, 50 mM NaCl, 10 mM MgCl2, 1 mM EGTA, 0.02% Triton-X100, and 100 μM sphingosine, all from Sigma-Aldrich). […] Briefly, COX2 WT and mutant enzymes (1 mU) were resuspended in 100 μl reaction buffer (20 mM HEPES; pH 7.4, 50 mM NaCl, 10 mM MgCl2, 1 mM EGTA, and 0.02% Triton-X100, all from Sigma-Aldrich). Reactions were initiated by adding [^14C] N-AS (1–200 μM (0.1–20 μCi), ARC UK Ltd, ARC-1024) and incubated at 37 °C for 1 h. The reactions were terminated by adding 100 μl of ice-cold reaction buffer containing 5 mM cold N-AS and immediately filtered through P30 filtermat (Perkin-Elmer), followed by five washes.
The binding velocity was plotted and the Kcat and KM values were calculated from the Michaelis-Menten analysis using the Sigma-plot program (ver 10.0, Systat software Inc.).

[2] = tissue concentrations at 24 h (brain, liver, kidney, heart; Supplementary Fig 3g); format: in vivo, C57BL/6 mice; set-up: Brain concentration (sFig 3g): unit not given here; settings: for Heart concentration (sFig 3g) / Kidney concentration (sFig 3g) / Liver concentration (sFig 3g) / Brain concentration (sFig 3g): 24 h, individual animals
Experimental: C57BL/6 mice were administered N-AS (Sigma-Aldrich, 01912) at doses of 1 mg kg^−1 (i.v.) or 10 mg kg^−1 (p.o.). Venous blood samples were collected at 5, 15, and 30 min, and 1, 2, 4, 8, and 24 h postdose. A 30 μl of plasma was separated from whole blood by centrifugation and stored at −80 °C until analysis. Also, brain samples were collected at 1, 2, 4, and 24 h postdose and heart, liver, and kidney samples were collected at 24 h postdose, thoroughly rinsed with physiological saline and weighed. Twenty percentage of tissue homogenates were prepared by homogenizing the tissue samples with four volumes of saline. A 30 μl aliquot of plasma or a 50 μl aliquot of tissue homogenates were deproteinized by addition of 200 μl cold methanol (containing naringenin as internal standard at 20 ng ml^−1) and centrifuged at 15,974×g for 10 min. A 10 μl aliquot of the supernatant was injected into Agilent 6470 LC-MS/MS system. Separation was performed on a Synergy Polar RP column (4 μm particle size, 2.0 mm ×150 mm, Phenomenex) using a mobile phase that consisted of methanol and water (85:15, v/v) with 0.1% formic acid at a flow rate of 0.2 ml min^−1. Quantification was carried out using multiple reaction monitoring (MRM) at m/z 340.3→263.3 for N-AS and m/z 271.1→151.3 for naringenin (internal standard) in negative ionization mode and collision energy of 20 eV. p, and relative oral BA values were calculated as follows: BA% = AUCp.o. normalized by p.o. dose/AUCi.v. normalized by i.v. dose × 100.

CCCCCCCCCCCCC/C=C/[C@@H](O)[C@H](CO)NC(C)=O [N-AS, N-((2S,3R,E)-1,3-Dihydroxyoctadec-4-en-2-yl)acetamide]
binding velocity (Vbinding) ([1]; 1 uM (100 pmol)): 0.888 nM/min and 1.293 nM/min and 0.920 nM/min | binding velocity (Vbinding) ([1]; 5 uM (500 pmol)): 5.664 nM/min and 7.362 nM/min and 11.711 nM/min | binding velocity (Vbinding) ([1]; 10 uM (1000 pmol)): 14.955 nM/min and 10.446 nM/min and 14.278 nM/min | binding velocity (Vbinding) ([1]; 20 uM (2000 pmol)): 30.848 nM/min and 29.462 nM/min and 25.197 nM/min | binding velocity (Vbinding) ([1]; 100 uM (10000 pmol)): 52.281 nM/min and 47.667 nM/min and 52.002 nM/min | binding velocity (Vbinding) ([1]; 200 uM (20000 pmol)): 58.338 nM/min and 57.809 nM/min and 65.044 nM/min | tissue concentration of N-AS at 24 hours post administration, in words ([2]; brain vs liver, kidney, heart, i.v. 1 mg/kg or p.o. 10 mg/kg): brain showed the highest concentration of N-AS | Heart concentration (sFig 3g) ([2]; i.v 1mg/kg): 0 | Kidney concentration (sFig 3g) ([2]; i.v 1mg/kg): 0 | Liver concentration (sFig 3g) ([2]; i.v 1mg/kg): 0 | Brain concentration (sFig 3g) ([2]; i.v 1mg/kg, 1 mg/kg): 13.15 and 12.57 and 8.38 and 7.48 | Heart concentration (sFig 3g) ([2]; p.o. 10mg/kg): 0 | Kidney concentration (sFig 3g) ([2]; p.o. 10mg/kg): 0 | Liver concentration (sFig 3g) ([2]; p.o. 10mg/kg): 0 | Brain concentration (sFig 3g) ([2]; p.o. 10mg/kg, 10 mg/kg): 20.2 and 32.76 and 11.3 and 29.06
